Tests used:
Assay in all cases: relative viability (nuclei count vs DMSO), 5 days (fraction); higher = more cells survive
[1] = compound: Nc1ccn([C@@H]2O[C@H](CO)[C@@H](O)C2(F)F)c(=O)n1 [Gemcitabine] + N=C(N)NC(=N)NCCc1ccccc1 [Phenformin] (partner 250 µM)
Outline: (§1)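 Cells from lung cancer lines were seeded into 1536-well plates and, one day later, dosed by pin tool. Treatments were either a single drug or a fixed dose of an anchor drug with five library-drug doses (not always all listed) in √10 steps. After 5 days, nuclei were stained in a one-step fixation (final 0.05% Triton X-100, 1% formaldehyde, 1 ug/ml Hoechst) and counted on 4× images, and relative viability is the treated-to-vehicle nuclei ratio, as the median of duplicate plates.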

[2] = compound: Nc1ccn([C@@H]2O[C@H](CO)[C@@H](O)C2(F)F)c(=O)n1 [Gemcitabine] + NC(=O)Nc1cc(-c2cccc(F)c2)sc1C(=O)N[C@H]1CCCNC1 [AZD7762] (partner 0.2 µM)
Outline: as §1

[3] = compound: Nc1ccn([C@@H]2O[C@H](CO)[C@@H](O)C2(F)F)c(=O)n1 [Gemcitabine] + Cc1nc(NC(=O)N2CCC[C@H]2C(N)=O)sc1-c1ccnc(C(C)(C)C(F)(F)F)c1 [Alpelisib] (partner 2 µM)
Outline: as §1

[4] = compound: Nc1ccn([C@@H]2O[C@H](CO)[C@@H](O)C2(F)F)c(=O)n1 [Gemcitabine] + CS(=O)(=O)N1CCN(Cc2cc3nc(-c4cccc5[nH]ncc45)nc(N4CCOCC4)c3s2)CC1 [Pictilisib] (partner 1 µM)
Outline: as §1

| Cell Line | relative viability ([1]; first compound 0.001 µM) | relative viability ([1]; first compound 0.003162 µM) | relative viability ([1]; first compound 0.01 µM) | relative viability ([1]; first compound 0.03162 µM) | relative viability ([1]; first compound 0.1 µM) | relative viability ([2]; first compound 0.001 µM) | relative viability ([2]; first compound 0.003162 µM) | relative viability ([2]; first compound 0.01 µM) | relative viability ([2]; first compound 0.03162 µM) | relative viability ([2]; first compound 0.1 µM) | relative viability ([3]; first compound 0.001 µM) | relative viability ([3]; first compound 0.003162 µM) | relative viability ([3]; first compound 0.01 µM) | relative viability ([3]; first compound 0.03162 µM) | relative viability ([3]; first compound 0.1 µM) | relative viability ([4]; first compound 0.001 µM) | relative viability ([4]; first compound 0.003162 µM) | relative viability ([4]; first compound 0.01 µM) | relative viability ([4]; first compound 0.03162 µM) | relative viability ([4]; first compound 0.1 µM) |
| --- | --- | --- | --- | --- | --- | --- | --- | --- | --- | --- | --- | --- | --- | --- | --- | --- | --- | --- | --- | --- |
| LCLC-103H | 0.321 | 0.318 | 0.279 | 0.198 | 0.193 | 0.788 | 0.761 | 0.66 | 0.24 | 0.215 | 1 | 0.878 | 0.949 | 1 | 0.272 | 0.579 | 0.641 | 0.659 | 0.627 | 0.417 |
| LK-2 | 0.834 | 0.43 | 0.313 | 0.142 | 0.142 | 0.455 | 0.251 | 0.0955 | 0.105 | 0.0964 | 1.23 | – | 0.447 | 0.242 | 0.251 | 0.527 | – | 0.419 | 0.271 | 0.288 |
| LOU-NH91 | 0.723 | 0.498 | 0.442 | 0.225 | 0.21 | 0.762 | 0.603 | 0.395 | 0.288 | 0.292 | 0.726 | 0.515 | 0.457 | 0.316 | 0.263 | 0.496 | 0.475 | 0.486 | 0.389 | 0.34 |
| LU99A | 0.857 | 0.949 | 0.805 | 0.801 | 0.789 | 0.437 | 0.41 | 0.332 | 0.367 | 0.299 | 0.506 | 0.576 | 0.515 | 0.505 | 0.481 | 0.33 | 0.31 | 0.313 | 0.369 | 0.333 |
| LXF-289 | 0.517 | 0.445 | 0.263 | 0.0911 | 0.0812 | 1.1 | 0.767 | 0.0873 | 0.0797 | 0.088 | 1.04 | 1 | 0.737 | 0.123 | 0.114 | 0.761 | 0.758 | 0.592 | 0.275 | 0.11 |
| NCI-H23 | 0.71 | 0.491 | 0.144 | 0.136 | 0.135 | 0.154 | 0.134 | 0.0996 | 0.112 | 0.118 | 0.57 | 0.242 | 0.108 | 0.129 | 0.115 | 0.446 | 0.328 | 0.143 | 0.146 | 0.104 |
| NCI-H322M | 0.635 | 0.378 | 0.288 | 0.334 | 0.268 | 0.458 | 0.382 | 0.356 | 0.423 | 0.419 | 0.562 | 0.292 | 0.245 | 0.294 | 0.271 | 0.445 | 0.178 | 0.251 | 0.239 | 0.244 |
| NCI-H358 | 0.291 | 0.22 | 0.101 | 0.0745 | 0.0748 | 0.201 | 0.245 | 0.16 | 0.23 | 0.126 | 0.64 | 0.236 | 0.154 | 0.175 | 0.151 | 0.338 | 0.27 | 0.188 | 0.194 | 0.161 |

Reference: the supplement of paper PMC10307832
